Measured values reported in ChEMBL document CHEMBL1137032, “Nonpeptide alpha V beta 3 antagonists. Part 10: In vitro and in vivo evaluation of a potent 7-methyl substituted tetrahydro-[1,8]naphthyridine derivative” (Bioorg Med Chem Lett, 2004).
Values joined by “and” are separate entries in the source; they are usually repeats but may differ in a detail not shown here. Equal entries are not always repeated.

Key:
[1] = Half life in dog; type: ADME, Canis lupus familiaris; details: in vivo
[2] = target: Integrin alpha-V/beta-3 (Homo sapiens) (UniProt P05106+P06756); assay: In vitro binding affinity against integrin Alpha-v Beta3 receptor in SPA assay; type: protein-complex assay
[3] = Bioavailability in dog; type: ADME, organism-based, Canis lupus familiaris; details: in vivo
[4] = Human plasma binding affinity was determined; type: ADME, cell-free; details: read-out: PB (converted)
[5] = Plasma clearance in dog; type: ADME, organism-based, Canis lupus familiaris; details: in vivo
[6] = Partition coefficient (logP); type: physicochemical; details: octanol/water
[7] = Effect was measured in male rats on distal femoral metaphysis bone mineral density; type: ADME; details: rat
[8] = Bioavailability in rhesus monkey; type: ADME, organism-based; details: in vivo
[9] = Clearance value in dog; type: ADME, organism-based, Canis lupus familiaris; details: in vivo
[10] = Clearance value in rat; type: ADME, organism-based; details: in vivo
[11] = Clearance value in rhesus monkey; type: ADME, organism-based; details: cercopithecidae, in vivo
[12] = Plasma clearance in rat; type: ADME, organism-based; details: in vivo
[13] = Bioavailability in rat; type: ADME, organism-based; details: in vivo
[14] = Bioavailability in rhesus Monkey; type: ADME, organism-based, Macaca mulatta; details: in vivo
[15] = Plasma clearance in rhesus monkey; type: ADME, organism-based; details: cercopithecidae, in vivo

Q: With `COc1ccc([C@H](CC(=O)O)N2CCN(CCCc3nc4c(cc3C)CCCN4)C2=O)cn1` as the compound, how does the half-life [1] read?
A: The half-life was 2.2 h.

Q: What about the SPAV3 [2] of the same compound?
A: Its SPAV3 is 0.13 nM.

Q: What about the bioavailability [3] of the same compound?
A: Its bioavailability is 55%.

Q: And the fraction unbound [4]?
A: The fraction unbound was 0.22.

Q: What about the clearance [5] of the same compound?
A: Its clearance is 18 mL/min/kg.

Q: What about the logP [6] of the same compound?
A: Its logP is 0.62.

Q: What does the source list for `COc1ccc([C@H](CC(=O)O)N2CCN(CCCc3ccc4c(n3)N[C@H](C)CC4)C2=O)cn1`?
A: SPAV3 [2]: 0.11 nM; fraction unbound [4]: 0.08; logP [6]: 0.56

Q: Which DFMBMD [7] does the source give for `COc1ccc([C@H](CC(=O)O)N2CCN(CCCc3ccc4c(n3)NCCC4)C2=O)cn1` here?
A: Its DFMBMD is 133 mg/Ecm and 145 mg/Ecm and 157.2 mg/Ecm.

Q: And the SPAV3 [2]?
A: Its SPAV3 is 0.08 nM.

Q: What about the fraction unbound [4] of the same compound?
A: Its fraction unbound is 0.12.

Q: What about the bioavailability [8] of the same compound?
A: The bioavailability was 74%.

Q: And the clearance [9]?
A: Its clearance is 6.4 mL/min/kg.

Q: What about the clearance [10] of the same compound?
A: Its clearance is 47 mL/min/kg.

Q: And the clearance [11]?
A: The clearance was 9 mL/min/kg.

Q: Which results are given for `COc1ccc([C@H](CC(=O)O)N2CCN(CCCc3ccc4c(n3)N[C@@H](C)CC4)C2=O)cn1`?
A: clearance [12]: 41 mL/min/kg; DFMBMD [7]: 137 mg/Ecm and 147.9 mg/Ecm and 161 mg/Ecm and 141.1 mg/Ecm and 156.6 mg/Ecm; SPAV3 [2]: 0.11 nM; bioavailability [3]: 83%; bioavailability [13]: 50%; fraction unbound [4]: 0.05; bioavailability [14]: 75%; clearance [5]: 1.7 mL/min/kg; clearance [15]: 3.5 mL/min/kg; logP [6]: 0.69
